The test concerns the target T1, tmMBP (tmMBP2 isoform; maltodextrin-binding protein) (Thermotoga maritima, UniProt Q9S5Y1).
T1 construct: gene TM_1839; H/D-exchanged crystal, single chain in asymmetric unit
T1 sequence (Q9S5Y1 20-393): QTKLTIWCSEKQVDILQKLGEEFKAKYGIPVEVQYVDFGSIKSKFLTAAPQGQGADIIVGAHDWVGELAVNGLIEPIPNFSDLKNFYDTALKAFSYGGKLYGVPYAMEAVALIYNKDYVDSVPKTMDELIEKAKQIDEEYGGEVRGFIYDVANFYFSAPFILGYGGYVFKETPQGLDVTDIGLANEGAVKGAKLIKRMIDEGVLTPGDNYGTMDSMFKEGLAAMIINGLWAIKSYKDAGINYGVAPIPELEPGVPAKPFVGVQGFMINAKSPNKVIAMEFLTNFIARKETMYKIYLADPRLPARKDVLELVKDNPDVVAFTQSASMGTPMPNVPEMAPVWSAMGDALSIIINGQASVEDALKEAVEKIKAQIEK
As to the kind of experiment: joint neutron/X-ray crystal structure. The note with it: pH 5.5 crystals, room temperature, D2O exchanged; interdomain binding site; neutron 2.10 A, X-ray 1.70 A.

The structures appear in SMILES notation.

The values below come from publication PMC9587032, “Mapping periplasmic binding protein oligosaccharide recognition with neutron crystallography” (Scientific Reports, 2022).

In the case of `OC[C@H]1O[C@H](O[C@H]2[C@H](O)[C@@H](O)[C@@H](O[C@H]3[C@H](O)[C@@H](O)[C@@H](O[C@H]4[C@H](O)[C@@H](O)C(O)O[C@@H]4CO)O[C@@H]3CO)O[C@@H]2CO)[C@H](O)[C@@H](O)[C@@H]1O` (stereo partly shown) [maltotetraose], the “joint neutron/X-ray crystal structure” value was “final refined atomic model for maltotetraose bound tmMBP have been deposited”.
